How the values were obtained:
[1] = target: T1, Prostaglandin D2 receptor 2 (Homo sapiens, UniProt Q9Y5Y4); test: Antagonist activity at CRTh2 receptor (unknown origin) overexpressed in CHOK1 cell membranes assessed as inhibition of [35S]-GTPgammaS binding at 1 to 5 uM preincubated for 1 hr followed by 50 nM PGD2 and 0.1 nM [35S]-GTPgammaS addition measured after 2 hrs by liquid scintillation counting analysis relative to control; assay type: functional, CHO-K1
T1 sequence (Q9Y5Y4 whole entry): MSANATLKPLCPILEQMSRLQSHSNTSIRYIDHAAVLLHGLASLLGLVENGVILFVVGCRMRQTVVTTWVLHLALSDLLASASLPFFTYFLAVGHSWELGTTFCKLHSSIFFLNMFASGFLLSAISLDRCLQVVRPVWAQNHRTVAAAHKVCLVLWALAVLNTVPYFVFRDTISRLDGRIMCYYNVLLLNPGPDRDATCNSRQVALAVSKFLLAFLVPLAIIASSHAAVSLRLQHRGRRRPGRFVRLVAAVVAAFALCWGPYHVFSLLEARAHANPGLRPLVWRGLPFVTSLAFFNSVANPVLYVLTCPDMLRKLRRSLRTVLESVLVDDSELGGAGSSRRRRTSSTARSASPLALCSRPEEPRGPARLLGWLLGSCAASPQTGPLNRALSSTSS

[2] = target: T2, Prostaglandin D2 receptor 2 (Homo sapiens) (UniProt Q9Y5Y4); conditions: CHO-K1
T2 sequence (whole entry): T1 sequence (Q9Y5Y4 whole entry)
Description: Binding affinity to CRTh2 receptor (unknown origin) overexpressed in CHOK1 cell membranes assessed as dissociation half life at 10 X IC50 preincubated for 1 hr followed [35S]-GTPgammaS addition measured after 2 hrs by liquid scintillation counting analysis

[3] = Apparent permeability of the compound at 20 uM incubated at 20 degC for 5 hrs in 2% DMSO containing PBS buffer solution by PAMPA assay; assay type: physicochemical
[4] = Lipophilicity, log D of the compound at pH 7.4 by shake flask method; assay type: physicochemical; conditions: buffer
[5] = Permeability of the compound assessed as mass balance at 20 uM incubated at 20 degC for 5 hrs in 2% DMSO containing PBS buffer solution by PAMPA assay; assay type: ADME; conditions: read-out: Activity
[6] = Drug metabolism in human liver microsomes at 5 uM in presence of NADPH after 30 mins at 37 degC; assay type: ADME; conditions: read-out: Drug metabolism
[7] = Drug metabolism in rat liver microsomes assessed as phase-2 metabolism measured by glucuronidation level at 5 uM in presence of UDPGA after 2 hrs at 37 degC; assay type: ADME; conditions: read-out: Drug metabolism
[8] = Drug metabolism in human liver microsomes assessed as phase-2 metabolism measured by glucuronidation level at 5 uM in presence of UDPGA after 2 hrs at 37 degC; assay type: ADME; conditions: read-out: Drug metabolism
[9] = Cmax in rat at 1 mg/kg; assay type: ADME, organism-based; parameters: dose 1 mg/kg; conditions: in vivo
[10] = AUC (0 to infinity) in rat at 1 mg/kg; assay type: ADME, organism-based; parameters: time infinity, dose 1 mg/kg; conditions: plasma
[11] = Clearance in rat at 1 mg/kg; assay type: ADME, organism-based; parameters: dose 1 mg/kg; conditions: in vivo
[12] = Volume of distribution at steady state in rat at 1 mg/kg; assay type: ADME, organism-based; parameters: dose 1 mg/kg; conditions: in vivo, read-out: Vdss
[13] = Terminal half life in rat at 1 mg/kg; assay type: ADME, organism-based; parameters: dose 1 mg/kg; conditions: in vivo, read-out: beta t1/2 (converted)
[14] = Mean residence time in rat at 1 mg/kg; assay type: ADME, organism-based; parameters: dose 1 mg/kg; conditions: in vivo
[15] = Dissociation constant, acidic pKa of the compound by potentiometric assay; assay type: physicochemical
[16] = Dissociation constant, basic pKa of the compound by potentiometric assay; assay type: physicochemical
[17] = Thermodynamic solubility in pH 1.0 buffer after 24 hrs at 37 degC; assay type: physicochemical; conditions: read-out: Therm_solubility
[18] = Thermodynamic solubility in pH 7.4 buffer after 24 hrs at 37 degC; assay type: physicochemical; conditions: read-out: Therm_solubility
[19] = Antagonist activity at CRTh2 receptor in human eosinophil assessed as inhibition of PGD2-induced cell shape change
[20] = Drug metabolism in rat liver microsomes at 5 uM in presence of NADPH after 30 mins at 37 degC; assay type: ADME; conditions: read-out: Drug metabolism
[21] = Oral bioavailability in rat at 10 mg/kg; assay type: ADME, organism-based; conditions: in vivo

## CCN(Cc1cc(C(F)(F)F)ccc1-c1cc(CC(=O)O)c2ccnn2c1)C(=O)C1CC1
[1]
  IC50: 123 nM
[2]
  T1/2: 0.2 h

## CCN(Cc1cc(C(F)(F)F)ccc1-c1cc(CC(=O)O)c2cccn2c1)C(=O)C1CC1
[1]
  IC50: 262 nM

## CCN(Cc1cc(C(F)(F)F)ccc1-c1cc(CC(=O)O)ccc1OC)C(=O)C1CC1
[1]
  IC50: 16 nM
[3]
  Papp at 5 h, 20 µM: 1.5 ×10⁻⁶ cm/s
[4]
  logD: 0.6
[5]
  recovery at 5 h, 20 µM: 91%
[6]
  metabolised at 0.5 h, 5 µM: < 5%
[7]
  metabolised at 2 h, 5 µM: 21%
[8]
  metabolised at 2 h, 5 µM: 28%
[9]
  Cmax: 1530 ng/mL
[10]
  AUC(0-inf): 2420 ng·h/mL
[11]
  clearance: 6.9 mL/min/kg
[12]
  Vd: 2 L/kg
[13]
  half-life: 5.9 h
[14]
  MRT: 4.7 h

## CCN(Cc1cc(C(F)(F)F)ccc1-n1cc(CC(=O)O)c2cccnc21)C(=O)C1CC1
[15]
  pKa: 2.4
[16]
  pKa: 4.2
[17]
  solubility thermodynamic at 24 h: > 1000 µg/mL
[18]
  solubility thermodynamic at 24 h: > 1000 µg/mL
[3]
  Papp at 5 h, 20 µM: 1.1 ×10⁻⁶ cm/s
[4]
  logD: 0.5
[5]
  recovery at 5 h, 20 µM: 80%
[7]
  metabolised at 2 h, 5 µM: 6%
[9]
  Cmax: 926 ng/mL
[10]
  AUC(0-inf): 885 ng·h/mL
[11]
  clearance: 19 mL/min/kg
[12]
  Vd: 3.9 L/kg
[13]
  half-life: 5.3 h
[14]
  MRT: 3.4 h

## CCN(Cc1cc(C(F)(F)F)ccc1-c1cc(CC(=O)O)cn2ccnc12)C(=O)C1CC1
[1]
  IC50: 159 nM
[2]
  T1/2: 0.7 h

## CCN(Cc1cc(C(F)(F)F)ccc1-c1cc(CC(=O)O)cn2cnnc12)C(=O)C1CC1
[1]
  IC50: 398 nM

## CCN(Cc1cc(C(F)(F)F)ccc1-c1cn(CC(=O)O)c2cccnc12)C(=O)C1CC1
[15]
  pKa: 2.5
[16]
  pKa: 5.6
[17]
  solubility thermodynamic at 24 h: > 1000 µg/mL
[18]
  solubility thermodynamic at 24 h: > 1000 µg/mL

## CCN(Cc1cc(C(F)(F)F)ccc1-c1nc(CC(=O)O)c2ccccn12)C(=O)C1CC1
[1]
  IC50: 82 nM
[15]
  pKa: 3
[16]
  pKa: 4.8
[17]
  solubility thermodynamic at 24 h: > 1000 µg/mL
[2]
  T1/2: 0.7 h

## CCN(Cc1cc(C(F)(F)F)ccc1-c1cc(CC(=O)O)c2ccncn12)C(=O)C1CC1
[2]
  T1/2: 1.5 h

## CCN(Cc1cc(C(F)(F)F)ccc1-c1cc(CC(=O)O)n2cccnc12)C(=O)C1CC1
[15]
  pKa: 3.7
[16]
  pKa: 1.7
[17]
  solubility thermodynamic at 24 h: > 1000 µg/mL
[18]
  solubility thermodynamic at 24 h: > 1000 µg/mL
[19]
  IC50: 1.4 nM

## CCN(Cc1cc(C(F)(F)F)ccc1-c1cc(CC(=O)O)cn2nccc12)C(=O)C1CC1
[1]
  IC50: 247 nM

## CCN(Cc1cc(C(F)(F)F)ccc1-c1nn(CC(=O)O)c2ccccc12)C(=O)C1CC1
[15]
  pKa: 2.8
[17]
  solubility thermodynamic at 24 h: < 1 µg/mL
[18]
  solubility thermodynamic at 24 h: > 1000 µg/mL
[3]
  Papp at 5 h, 20 µM: 0.18 ×10⁻⁶ cm/s
[4]
  logD: 0.8
[5]
  recovery at 5 h, 20 µM: 81%
[20]
  metabolised at 0.5 h, 5 µM: < 5%
[6]
  metabolised at 0.5 h, 5 µM: < 5%
[7]
  metabolised at 2 h, 5 µM: 12%
[8]
  metabolised at 2 h, 5 µM: 35%
[9]
  Cmax: 550 ng/mL
[10]
  AUC(0-inf): 440 ng·h/mL
[11]
  clearance: 38 mL/min/kg
[12]
  Vd: 5.4 L/kg
[13]
  half-life: 2.4 h
[14]
  MRT: 2.4 h
[2]
  T1/2: 1.6 h
[19]
  IC50: 47 nM

## CCN(Cc1cc(C(F)(F)F)ccc1-c1cn(CC(=O)O)c2ccncc12)C(=O)C1CC1
[1]
  IC50: 43 nM
[15]
  pKa: 2.4
[16]
  pKa: 7.8
[2]
  T1/2: 1.1 h

## CCN(Cc1cc(C(F)(F)F)ccc1-n1cc(CC(=O)O)c2ccccc21)C(=O)C1CC1
[19]
  IC50: 84 nM

## CCN(Cc1cc(C(F)(F)F)ccc1-c1cc(CC(=O)O)cc2cn(C)nc12)C(=O)C1CC1
[1]
  IC50: 48 nM
[2]
  T1/2: 1.2 h

## CCN(Cc1cc(C(F)(F)F)ccc1-c1cc(CC(=O)O)cc2cnn(C)c12)C(=O)C1CC1
[1]
  IC50: 48 nM
[2]
  T1/2: 1.4 h

## CCN(Cc1cc(C(F)(F)F)ccc1-c1cn(CC(=O)O)c2ccccc12)C(=O)C1CC1
[17]
  solubility thermodynamic at 24 h: < 1 µg/mL
[18]
  solubility thermodynamic at 24 h: > 1000 µg/mL
[3]
  Papp at 5 h, 20 µM: 0.6 ×10⁻⁶ cm/s
[4]
  logD: 1.4
[5]
  recovery at 5 h, 20 µM: 71%
[20]
  metabolised at 0.5 h, 5 µM: < 5%
[7]
  metabolised at 2 h, 5 µM: 32%
[9]
  Cmax: 571 ng/mL
[10]
  AUC(0-inf): 559 ng·h/mL
[11]
  clearance: 30 mL/min/kg
[12]
  Vd: 2.9 L/kg
[13]
  half-life: 1.5 h
[14]
  MRT: 1.6 h
[21]
  bioavailability: 46%
[2]
  T1/2: 4 h

— ChEMBL document CHEMBL3352694, “Structure-activity relationships (SAR) and structure-kinetic relationships (SKR) of bicyclic heteroaromatic acetic acids as potent CRTh2 antagonists I” (Bioorg Med Chem Lett, 2014)
